# Source: ChEMBL document CHEMBL3120132, “Antiviral compounds for the treatment of HCV” (ACS Med Chem Lett, 2014)
# Test system: Hepatitis C virus
# Assay: Antiviral activity against Hepatitis C virus Con1 genotype 1b expressing NS3 infected in human 2209-23 cells assessed as inhibition of viral replication after 72 hrs by luciferase reporter gene assay
# Type: functional, organism-based, Hepacivirus hominis
# Details: isolate Con1, 2209-23, 72 h
row,Compound,IC50 [nM]
1,CCOC(=O)[C@@H]1C[C@H](NC(=O)c2ccc3ccccc3c2O)CN1CC(C)C,0.055
2,COC(=O)[C@@H]1C[C@H](NC(=O)c2ccc3ccccc3c2O)CN1Cc1ccccc1,0.079
3,COC(=O)[C@@H]1C[C@H](NC(=O)c2ccc3ccccc3c2O)CN1CCC(C)(C)C,0.051

# Other lines, results leading:
row,IC50 [nM],Compound
1,0.029,CCOC(=O)[C@@H]1C[C@H](NC(=O)c2ccc3ccccc3c2O)CN1CC1CCCC1
2,0.052,CCOC(=O)[C@@H]1C[C@H](NC(=O)c2ccc3ccccc3c2O)CN1CC1CCC1
3,0.047,COC(=O)[C@@H]1C[C@H](NC(=O)c2ccc3ccccc3c2O)CN1CC1CCCCC1
